Experiments:
[1] = Potentiometric titration in methylcellosolve/water 4:1 (pKa, pH1/2); assay type: physicochemical; details: methylcellosolve/water 4:1 (v/v), excess 0.01 M HCl, titrated with 0.01 M NaOH
Description: ^(c) the samples are dissolved in methylcellosolve ®/water 4:1
(v/v), an excess of 0.01 M hydrogen chloride in the same mixture is added
thereto and the resulting solution is titrated with 0.01 M NaOH in the […]

[2] = Solubility characteristics
[3] = test system: S. pyogenes C 203 SKF 13400; assay: MIC, standard agar-dilution test; assay type: cell-based; details: Todd-Hewitt broth, inoculum about 10^4 CFU/ml
Description: (§1) Isosensitest broth (Oxoid) and Todd-Hewitt broth (Difco) are used for growing staphylococci and streptococci, respectively. Broth cultures are diluted so that the final inoculum is about 10^4 colony forming units/ml (CFU/ml).

E. coli SKF 12140 = assay: MIC, standard agar-dilution test; assay type: cell-based; details: inoculum about 10^4 CFU/ml
Description: as §1

S. aureus ATCC 6538 = assay: MIC, standard agar-dilution test; assay type: cell-based; details: inoculum about 10^4 CFU/ml, 18-24 h at 37° C.
Description: as §1

[4] = test system: S. epidermidis ATCC 12228; assay: MIC, standard agar-dilution test; assay type: cell-based; details: inoculum about 10^4 CFU/ml
Description: as §1

S. pneumoniae UC 41 = assay: MIC, standard agar-dilution test; assay type: cell-based; details: inoculum about 10^4 CFU/ml
Description: as §1

S. faecalis ATCC 7080 = assay: MIC, standard agar-dilution test; assay type: cell-based; details: inoculum about 10^4 CFU/ml
Description: as §1

S. aureus TOUR = assay: MIC, standard agar-dilution test; assay type: cell-based
Description: Isosensitest broth (Oxoid) and Todd-Hewitt broth (Difco) are used for growing staphylococci and streptococci, respectively. […]

[5] = S. aureus TOUR + 30% bovine serum

| Compound | pKa [1] | MIC [3] [µg/mL] | MIC (E. coli SKF 12140) [µg/mL] | MIC (S. aureus ATCC 6538) [µg/mL] | MIC [4] [µg/mL] | MIC (S. pneumoniae UC 41) [µg/mL] | MIC (S. faecalis ATCC 7080) [µg/mL] | MIC (S. aureus TOUR; S. aureus TOUR (10^3 CFU/ml)) [µg/mL] | MIC (S. aureus TOUR; S. aureus TOUR (10^6 CFU/ml)) [µg/mL] | MIC (S. aureus TOUR; [5]) [µg/mL] | further results |
| --- | --- | --- | --- | --- | --- | --- | --- | --- | --- | --- | --- |
| N-benzyloxycarbonyl deglucoteicoplanin [Example 4] | 5.02 |  |  |  |  |  |  |  |  |  |  |
| N[C@H]1C(=O)N[C@@H]2Cc3ccc(c(Cl)c3)Oc3cc4cc(c3O)Oc3ccc(cc3Cl)[C@@H](O)[C@@H]3NC(=O)[C@H](NC(=O)[C@@H]4NC(=O)[C@@H](NC2=O)c2cc(O)cc(c2)Oc2cc1ccc2O)c1ccc(O)c(c1)-c1c(O)cc(O)cc1[C@@H](C(=O)O)NC3=O [Antibiotic L 17392, deglucoteicoplanin] |  |  |  |  |  |  |  |  |  |  | solubility in aqueous methanol, ethanol and acetone [2]: soluble; solubility in ethyl alcohol and dimethylformamide [2]: slightly soluble; solubility in water ([2]; water at a pH higher than 9): soluble |
| deglucoteicoplanin n-butyl ester, hydrochloride [Example 1] | 6.57 | 0.1 | 50 | 0.05 | 0.05 | 0.1 | 0.2 | 0.1 | 0.4 | 0.4 |  |
| CC(=O)N[C@@H]1[C@@H](O[C@H]2c3ccc(c(Cl)c3)Oc3cc4cc(c3O)Oc3ccc(cc3Cl)C[C@@H]3NC(=O)[C@@H](N)c5ccc(O)c(c5)Oc5cc(O)cc(c5)[C@@H](NC3=O)C(=O)N[C@@H]4C(=O)N[C@@H]3C(=O)N[C@H]2C(=O)N[C@@H](C(=O)O)c2cc(O)cc(O)c2-c2cc3ccc2O)O[C@@H](CO)[C@H](O)[C@H]1O (stereo in doubt) [Antibiotic L 17046] |  |  |  |  |  |  |  |  |  |  | solubility in dimethylformamide, dimethylsulfoxide, propyleneglycol and methylcellosolve [2]: freely soluble; solubility in methanol [2]: slightly soluble; solubility in water ([2]; water at pH>8.0): freely soluble |
| deglucoteicoplanin 4-chloro-butyl ester [Example 9] | 6.60 |  |  |  |  |  |  |  |  |  |  |
| deglucoteicoplanin n-octyl ester, hydrochloride [Example 2] | 6.82 | 0.05 | > 100 | 0.2 | 0.1 | 0.05 | 0.4 | 0.2 | 0.8 | 0.8 |  |
| deglucoteicoplanin benzyl ester, hydrochloride [Example 3] | 6.67 | 0.05 | 12.5 | 0.4 | 0.1 | 0.2 | 0.4 | 0.4 | 0.4 | 0.8 |  |

Source: patent US4954483A, “Carboxylic acid ester derivatives or deglucoteicoplanin” (Gruppo Lepetit, S.p.A., priority 1984, dated 1990)
